One block for each compound: values may come before it. Activity calls are given as the source filed them. The calls are words filed in the database; no cut-off is given here.
Experiments:
[1] = system: N2a; assay: Neuroprotective activity against OGD/R induced cell injury in mouse N2a cells assessed as cell viability at 10 uM preincubated under hypoxic condition for 2 hrs and measured after 24 hrs (reference value: 28.66 to 30.22 %); assay type: functional; conditions: time 26 hrs, read-out: Activity
[2] = Half-life in Sprague-Dawley rat at 10 mg/kg, po measured upto 8 hrs by LC-MS/MS analysis; assay type: ADME, organism-based; conditions: in vivo
[3] = AUC(0 to t) in Sprague-Dawley rat at 10 mg/kg, po measured upto 8 hrs by LC-MS/MS analysis; assay type: ADME, organism-based; conditions: in vivo
[4] = Cmax in Sprague-Dawley rat at 10 mg/kg, po measured upto 8 hrs by LC-MS/MS analysis; assay type: ADME, organism-based; conditions: in vivo
[5] = AUC(0 to infinity) in Sprague-Dawley rat at 10 mg/kg, po measured upto 8 hrs by LC-MS/MS analysis; assay type: ADME, organism-based; conditions: in vivo
[6] = Tmax in Sprague-Dawley rat at 10 mg/kg, po measured upto 8 hrs by LC-MS/MS analysis; assay type: ADME, organism-based; conditions: in vivo
[7] = system: Mus musculus; assay: Neuroprotective activity against tMCAO-reperfusion induced brain injury in SPF C57 mouse model assessed as reduction in infarct volume at 30 mg/kg, iv measured after 24 hrs (reference value: 41.48%); assay type: functional; parameters: scale not given: the % may be the effect or the level left
[8] = Metabolic stability in human liver microsomes assessed as half life at 50 uM preincubated with NADPH for 5 mins followed by compound addition and measured upto 60 mins by LC-MS/MS analysis; assay type: ADME, Microsome
[9] = system: Mus musculus; assay: Neuroprotective activity against tMCAO-reperfusion induced brain injury in iv dosed SPF C57 mouse model assessed as decrease in cytochrome C expression measured after 24 hrs by Western blotting analysis; assay type: functional, organism-based; conditions: dose 3-30 mg/kg
[10] = Cmax in Sprague-Dawley rat at 10 mg/kg, po measured at 2 hrs by LC-MS/MS analysis; assay type: ADME, organism-based; conditions: in vivo
[11] = system: Mus musculus; assay: Neuroprotective activity against tMCAO-reperfusion induced brain injury in iv dosed SPF C57 mouse model assessed as decrease in cleaved caspase-3 expression measured after 24 hrs by Western blotting analysis; assay type: functional, organism-based; conditions: dose 3-30 mg/kg
[12] = system: Mus musculus; assay: Neuroprotective activity against photo-thrombotic SPF C57 mouse model assessed as change in motor function at 30 mg/kg, po measured after day 1 to 3; assay type: functional, organism-based
[13] = system: N2a; assay: Neuroprotective activity against OGD/R induced cell injury in mouse N2a cells assessed as reduction in apoptosis at 0.1 to 100 uM incubated for 24 hrs by TUNEL assay; assay type: functional, cell-based; conditions: dose 0.1-100 µM
[14] = Metabolic stability in human liver microsomes assessed as intrinsic clearance at 50 uM preincubated with NADPH for 5 mins followed by compound addition and measured upto 60 mins by LC-MS/MS analysis; assay type: ADME, Microsome; conditions: read-out: CLH
[15] = system: Mus musculus; assay: Neuroprotective activity against photo-thrombotic SPF C57 mouse model assessed as improvement in motor function at 30 mg/kg, po administered daily for 7 days; assay type: functional, organism-based; conditions: time 7.0 day
[16] = system: N2a; assay: Neuroprotective activity against OGD/R induced cell injury in mouse N2a cells assessed as inhibition of cell damage at 0.1 to 100 uM incubated for 24 hrs; assay type: functional, cell-based; conditions: dose 0.1-100 µM
[17] = Cmax in ICR mouse at 10 mg/kg, po measured upto 8 hrs by LC-MS/MS analysis; assay type: ADME, organism-based; conditions: in vivo
[18] = Metabolic stability in dog liver microsomes assessed as intrinsic clearance at 50 uM preincubated with NADPH for 5 mins followed by compound addition and measured upto 60 mins by LC-MS/MS analysis; assay type: ADME, Canis lupus familiaris, Microsome; conditions: read-out: CLH
[19] = system: N2a; assay: Neuroprotective activity against OGD/R induced cell membrane integrity loss in mouse N2a cells assessed as reduction in LDH release at 0.1 to 100 uM incubated for 24 hrs; assay type: functional, cell-based; conditions: dose 0.1-100 µM
[20] = Tmax in ICR mouse at 1 mg/kg, iv measured upto 8 hrs by LC-MS/MS analysis; assay type: ADME, organism-based; conditions: in vivo
[21] = Metabolic stability in rat liver microsomes assessed as intrinsic clearance at 50 uM preincubated with NADPH for 5 mins followed by compound addition and measured upto 60 mins by LC-MS/MS analysis; assay type: ADME, Microsome; conditions: read-out: CLH
[22] = Tmax in ICR mouse at 10 mg/kg, po measured upto 8 hrs by LC-MS/MS analysis; assay type: ADME, organism-based; conditions: in vivo
[23] = AUC(0 to t) in ICR mouse at 1 mg/kg, iv measured upto 8 hrs by LC-MS/MS analysis; assay type: ADME, organism-based; conditions: in vivo
[24] = system: Mus musculus; assay: Neuroprotective activity against tMCAO-reperfusion induced brain injury in SPF C57 mouse model assessed as decrease in neurological deficit score at 30 mg/kg, iv measured after 24 hrs; assay type: functional
[25] = organism: Mus musculus; assay: Neuroprotective activity against photo-thrombotic SPF C57 mouse model assessed as decrease in sensorimotor impairment measured after day 4 to 7; assay type: functional, organism-based
[26] = system: Mus musculus; assay: Neuroprotective activity against tMCAO-reperfusion induced brain injury in SPF C57 mouse model assessed as reduction in brain water content at 30 mg/kg, iv measured after 24 hrs; assay type: functional, organism-based
[27] = Metabolic stability in rat liver microsomes assessed as half life at 50 uM preincubated with NADPH for 5 mins followed by compound addition and measured upto 60 mins by LC-MS/MS analysis; assay type: ADME, Microsome
[28] = AUC(0 to infinity) in ICR mouse at 1 mg/kg, iv measured upto 8 hrs by LC-MS/MS analysis; assay type: ADME, organism-based; conditions: in vivo
[29] = Oral bioavailability in ICR mouse at 10 mg/kg measured upto 8 hrs by LC-MS/MS analysis; assay type: ADME, organism-based; conditions: in vivo
[30] = Metabolic stability in mouse liver microsomes assessed as half life at 50 uM preincubated with NADPH for 5 mins followed by compound addition and measured upto 60 mins by LC-MS/MS analysis; assay type: ADME, Microsome
[31] = AUC(0 to infinity) in ICR mouse at 10 mg/kg, po measured upto 8 hrs by LC-MS/MS analysis; assay type: ADME, organism-based; conditions: in vivo
[32] = Metabolic stability in monkey liver microsomes assessed as half life at 50 uM preincubated with NADPH for 5 mins followed by compound addition and measured upto 60 mins by LC-MS/MS analysis; assay type: ADME, Macaca mulatta, Microsome; conditions: rhesus monkey
[33] = system: N2a; assay: Neuroprotective activity against OGD/R induced cell injury in mouse N2a cells assessed as decrease in caspase-3 activity incubated for 24 hrs; assay type: functional, cell-based; conditions: dose 0.1-100 µM
[34] = AUC(0 to t) in ICR mouse at 10 mg/kg, po measured upto 8 hrs by LC-MS/MS analysis; assay type: ADME, organism-based; conditions: in vivo
[35] = system: Mus musculus; assay: Neuroprotective activity against tMCAO-reperfusion induced brain injury in iv dosed SPF C57 mouse model assessed as decrease in Bax expression measured after 24 hrs by Western blotting analysis; assay type: functional, organism-based; conditions: dose 3-30 mg/kg
[36] = Metabolic stability in monkey liver microsomes assessed as intrinsic clearance at 50 uM preincubated with NADPH for 5 mins followed by compound addition and measured upto 60 mins by LC-MS/MS analysis; assay type: ADME, Macaca mulatta, Microsome; conditions: rhesus monkey, read-out: CLH
[37] = system: Mus musculus; assay: Neuroprotective activity against tMCAO-reperfusion induced brain injury in SPF C57 mouse model assessed as reversal of reduced blood flow in semi-dark band area infarct volume at 3 to 30 mg/kg, iv measured after 24 hrs; assay type: functional, organism-based; conditions: dose 3-30 mg/kg
[38] = system: Mus musculus; assay: Neuroprotective activity against tMCAO-reperfusion induced brain injury in iv dosed SPF C57 mouse model assessed as reduction in infarction region measured after 24 hrs; assay type: functional, organism-based; conditions: dose 3-30 mg/kg
[39] = system: Mus musculus; assay: Neuroprotective activity against tMCAO-reperfusion induced brain injury in SPF C57 mouse model assessed as reduction in infarct volume at 10 mg/kg, iv measured after 24 hrs; assay type: functional; parameters: scale not given: the % may be the effect or the level left
[40] = Cmax in ICR mouse at 1 mg/kg, iv measured upto 8 hrs by LC-MS/MS analysis; assay type: ADME, organism-based; conditions: in vivo
[41] = AUC(0 to t) in Sprague-Dawley rat at 10 mg/kg, po measured at 2 hrs by LC-MS/MS analysis; assay type: ADME, organism-based; conditions: in vivo
[42] = Half-life in ICR mouse at 10 mg/kg, po measured upto 8 hrs by LC-MS/MS analysis; assay type: ADME, organism-based; conditions: in vivo
[43] = Metabolic stability in mouse liver microsomes assessed as intrinsic clearance at 50 uM preincubated with NADPH for 5 mins followed by compound addition and measured upto 60 mins by LC-MS/MS analysis; assay type: ADME, Microsome; conditions: read-out: CLH
[44] = Metabolic stability in dog liver microsomes assessed as half life at 50 uM preincubated with NADPH for 5 mins followed by compound addition and measured upto 60 mins by LC-MS/MS analysis; assay type: ADME, Canis lupus familiaris, Microsome

SMILES: CCCCC(O)c1ccc(Br)cc1-c1nnn(CCN(C)C)n1 (stereo not given)
viability at 10 µM [1]: 44%

SMILES: CCCC(O)c1ccccc1-c1nn[nH]n1 (stereo not given)
viability at 10 µM [1]: 35.6%

SMILES: CCCCC(O)c1ccc(Br)cc1-c1nnn(C2CC2)n1 (stereo not given)
viability at 10 µM [1]: 50.6%

SMILES: CCCC(O)c1ccc(C2=CCCCC2)cc1-c1nn[nH]n1 (stereo not given)
viability at 10 µM [1]: 39.1%

The next lines start with results.

half-life ([2]; Sprague-Dawley): 433 min | AUC(0-t) at 8 h [3]: 39.9 ng·h/mL | Cmax ([4]; Sprague-Dawley, read-out: Cmax): 13.1 ng/mL | AUC(0-inf) ([5]; Sprague-Dawley): 71.5 ng·h/mL | Tmax ([6]; Sprague-Dawley, read-out: Tmax): 15 min
SMILES: CCCCC(O)c1ccccc1-c1nnn(C)n1 (stereo not given)
viability at 10 µM [1]: 43.9%

half-life at 50 µM [8]: > 186 min | Cmax [10]: 1070 ng/mL | microsomal CLint at 50 µM [14]: < 7.4 µL/min/mg | Cmax [17]: 8710 ng/mL | t1/2 ([2]; po, 10 mg/kg, 8 h): 287 min | microsomal CLint at 50 µM [18]: < 7.4 µL/min/mg | AUC(0-t) at 8 h [3]: 6990 ng·h/mL | Tmax [20]: 4.8 min | microsomal CLint at 50 µM [21]: 36.3 µL/min/mg | Tmax [22]: 15 min | AUC(0-t) at 8 h [23]: 550 ng·h/mL | half-life at 50 µM [27]: 38.2 min | Cmax ([4]; po, 10 mg/kg, 8 h): 1130 ng/mL | AUC(0-inf) [28]: 550 ng·h/mL | bioavailability [29]: 94.9% | half-life at 50 µM [30]: 15.6 min | AUC(0-inf) [31]: 5590 ng·h/mL | half-life at 50 µM [32]: > 186 min | AUC(0-t) at 8 h [34]: 5240 ng·h/mL | microsomal CLint at 50 µM [36]: < 7.4 µL/min/mg | Cmax [40]: 3760 ng/mL | AUCt [41]: 5240 ng·h/mL | half-life [42]: 30.6 min | AUC ([5]; po, 10 mg/kg, 8 h): 11160 ng·h/mL | microsomal CLint at 50 µM [43]: 89.1 µL/min/mg | half-life at 50 µM [44]: > 186 min | Tmax ([6]; po, 10 mg/kg, 8 h): 120 min
SMILES: CCCCC(O)c1ccc(Br)cc1-c1nn[nH]n1 (stereo not given)
Activity [7]: 9.59% | Activity [9]: Dose-Dependent Effect | viability at 10 µM [1]: 56.6% | Activity [11]: Dose-Dependent Effect | Activity [12]: Active | Activity [13]: Active | Activity [15]: Active | Activity [16]: Active | Activity [19]: Active | Activity [24]: 2.07 | Activity [25]: Dose-Dependent Effect | Activity [26]: Active | Activity [33]: Dose-Dependent Effect | Activity [35]: Dose-Dependent Effect | Activity [37]: Active | Activity [38]: Dose-Dependent Effect | Activity [39]: 18.8%

AUC(0-t) at 8 h [3]: 2670 ng·h/mL | Tmax ([6]; Sprague-Dawley, read-out: Tmax): 15 min
SMILES: CCCCC(O)c1ccc(Cl)cc1-c1nn[nH]n1 (stereo not given)
viability at 10 µM [1]: 27.5%

AUC(0-t) at 8 h [3]: 2670 ng·h/mL | Tmax ([6]; Sprague-Dawley, read-out: Tmax): 15 min
SMILES: CCCCC(O)c1cc(Br)ccc1-c1nn[nH]n1 (stereo not given)
viability at 10 µM [1]: 37.6%
